Measured values published in ChEMBL document CHEMBL5380815, “Probing Ligand Binding Sites on Large Proteins by Nuclear Magnetic Resonance Spectroscopy of Genetically Encoded Non-Canonical Amino Acids” (J Med Chem, 2023).
Activity calls are given as the source filed them. The rule behind the calls is not given here.

What was measured:
[1] = molecular target: Replicase polyprotein 1ab (Severe acute respiratory syndrome coronavirus 2) (UniProt P0DTD1); assay: Inhibition of wild type recombinant SARS-COV2 main protease expressed in Escherichia coli BL21 (DE3) using DABCYL-KTSAVLQSGFRKME-EDANS-NH2 as fluorogenic substrate at 1.5 to 50 uM preincubated for 10 mins followed by substrate addition by FRET assay; conditions: dose 1.5-50 µM
SARS-CoV-2 = assay: Antiviral activity against SARS-COV2 infected in African green monkey Vero E6 cells assessed as reduction of viral titer by immunofocus assay; assay type: functional, organism-based; conditions: Severe acute respiratory syndrome coronavirus 2, Vero C1008
[2] = molecular target: T1, Replicase polyprotein 1ab (Severe acute respiratory syndrome coronavirus 2, UniProt P0DTD1); assay: Binding affinity to SARS-COV2 main protease assessed as dissociation constant by analytical ultracentrifugation analysis
[3] = molecular target: T1, Replicase polyprotein 1ab; assay: Binding affinity to SARS-COV2 main protease assessed as dissociation constant by mass spectrometry analysis
[4] = molecular target: T1, Replicase polyprotein 1ab; assay: Binding affinity to wild type SARS-COV2 main protease expressed in Escherichia coli BL21 (DE3) assessed as dissociation constant by small angle X-ray scattering analysis

SMILES | inhibition [1] | EC50 (SARS-CoV-2) [nM] | Kd [2] [nM] | Kd [3] [nM] | Kd [4] [nM]
CCOc1cc2ncc(C#N)c(Nc3ccc(F)c(Cl)c3)c2cc1NC(=O)/C=C/CN(C)C [PELITINIB] | inactive | 1250 | – | – | –
CC(=O)[C@@H]1CSCC(=O)N[C@H](Cc2ccc(O)cc2)C(=O)N[C@@H](CC(C)C)C(=O)N[C@@H](CCC(N)=O)C(=O)N[C@@H](Cc2ccc(O)cc2)C(=O)N[C@@H](C)C(=O)N[C@@H](C(C)C)C(=O)N[C@@H](CC(C)C)C(=O)N[C@@H](CCCNC(=N)N)C(=O)N[C@@H](Cc2c[nH]cn2)C(=O)N[C@@H](CCCCN)C(=O)N[C@@H](CCCNC(=N)N)C(=O)N[C@@H](CCCNC(=N)N)C(=O)N[C@@H](CCC(=O)O)C(=O)C1 | – | – | 2500 | 140 | 7000
